According to patent US20060058268A1, “Compounds and methods for treating diabetic vascular diseases” (priority 2004, published 2006):
pIC50: −log10 of the molar value.

Columns and labels:
VCAM-1 = VCAM-1 assay with ELISA readout (Examples 5-6); type: cell-based; settings: for pIC50: TNF added with compound, incubated overnight (approximately 16 hours); for VCAM-1 inhibition at [μM]: at 50 μM
Protocol: Two to four confluent P150 plates are trypsinized and the cells transferred to a 50 mL conical centrifuge tube. The cells are pelleted, resuspended, and counted using the trypan blue exclusion method.
Cells are resuspended at a concentration of 36,000 cells/mL and 1 mL is aliquoted per well.
Cells are split into 24 well tissue culture plates. The cells in each well should be approximately 90-95% confluent by the following day. Cells should not be older than passage 8.
Compounds are initially screened at 50 μM and 10 μM. A 50 mM stock solution for each compound is prepared in culture medium. The stock solution is diluted to 5 mM and 1 mM. When 10 μL of the 5 mM solution is added to the well (1 mL medium/well), the final concentration will be 50 μM. Adding 10 μL of the 1 mM solution to the well will give a final concentration of 10 μM.
Compounds which will not go into solution in culture medium are resuspended in DMSO at a concentration of 25 mM. The stock solution is then diluted to the final concentration in culture medium. The old medium is aspirated and 1 mL of the new medium with the compound is added. For example, if the final concentration is 50 µM, the 2 μL of the 25 mM stock is added per mL of culture medium. The […] solution is diluted for lower concentrations.
The compounds are added to the plate (each compound is done in duplicate). One plate is done for VCAM expression and one plate is done for ICAM expression.
Immediately after the compounds are added, TNF is added to each well. 100 units/mL TNF is usually added to each well. Since each lot of TNF varies in the number of units, each new lot is titrated to determine the optimum concentration. Therefore this concentration will change. If 100 units/mL is being used, dilute the TNF to 10 units/μL and add 10 μL to each well.
(§1) The plates are incubated at 37° C., 5% CO2 overnight (approximately 16 hours). The next day the plates are checked under the microscope to see if there are any visual signs of toxicity. Records are made of any cell death, debris, or morphology changes, as well as insoluble compounds (particulate or turbity).
In order to assess MCP-1, the media (500 μL) is saved and frozen at −70° C. Wash cells once with roughly 1 ml/well of Hanks Balance Salt Solution (HBSS) or PBS. Gently empty the wash solution and then tap the plate onto paper towels. Add either 250 μL/well of HBSS+5% FCCS to the plank (no primary antibody wells) or 250 μL/well of primary antibody diluted in HBSS+5% FCS. Incubate for 30 minutes at 37° C. Wash the wells twice with 0.5 mL/well HBSS or PBS and gently tap the plates onto paper towels after the last wash. Add 250 μL/well of HRP-conjugated second antibody diluted in HBSS+5% FCS to every well including the blank wells (no primary antibody). Incubate at 37° C. for 30 minutes. Wash the wells four times with 0.5 mL/well HBSS or PBS and gently tap the plates onto paper towels after the last wash. Add 250 μL/well of substrate solution. Incubate at room temperature in the dark until there is adequate color development (blue). Note the length of time incubation was performed (typically 15-30 minutes). Add 75 μL/well stopper solution (8N sulfuric acid), and read at 450 nm.

cells = type: cell-based; set-up: unit not given beside the values
Protocol: as §1

pIC50 (VCAM-1; 16 h)	Compound	pIC50 (VCAM-1)	LD50 (cells)	VCAM-1 inhibition at [μM] (VCAM-1) [% at 50]	inhibition at 20 µM (VCAM-1; at 20 μM) [%]
–	CC(C)(C)c1cc(SCc2ccc([N+](=O)[O-])cc2[N+](=O)[O-])cc(C(C)(C)C)c1O [2,6-di-tert-butyl-4-thio(2′,4′-dinitrobenzyl)phenol]	5.10	400	–	–
–	CN(C)S(=O)(=O)c1ccc(CSc2cc(C(C)(C)C)c(O)c(C(C)(C)C)c2)cc1 [2,6-di-tert-butyl-4-thio(4′-methyl-N,N-dimethylbenzene-sulfonamide)phenol]	4.70	350	–	–
–	CC(C)(C)c1cc(SCc2ccc(C(F)(F)F)cc2)cc(C(C)(C)C)c1O [(2,6-di-tert-butyl-4-thio(4′-(trifluoromethyl)benzyl)phenol]	5.30	300	–	–
–	CC(C)(C)c1cc(S(=O)(=O)Cc2ccc([N+](=O)[O-])cc2)cc(C(C)(C)C)c1O [2,6-di-tert-butyl-4-(sulfonyl-(4′-nitrobenzyl))phenol]	4.40	100	–	–
–	CC(=O)Oc1ccc(CSc2cc(C(C)(C)C)c(O)c(C(C)(C)C)c2)cc1 [2,6-di-tert-butyl-4-thio(4′-acetoxybenzyl)phenol]	4.74	75	–	–
–	CC(C)(Sc1cc(C(C)(C)C)c(O)c(C(C)(C)C)c1)Sc1cc(C(C)(C)C)c(OCc2ccc([N+](=O)[O-])cc2)c(C(C)(C)C)c1 [Phenol, 4-[[1-[3,5-bis(1,1-dimethylethyl)4-[(4-nitrophenyl)methoxy]phenyl]thio]-1-methylethyl]thio]2,6-bis(1,1-dimethylethyl)-]	–	>100	30	–
–	CC(C)(C)c1cc(SCc2ccc(CC(=O)O)cc2)cc(C(C)(C)C)c1O [2,6-di-tert-butyl-4-thio-(4′(methyl)phenylacetic acid)) phenol]	4.10	200	–	–
–	CC(C)(C)c1cc(SCc2ccc(CCO)cc2)cc(C(C)(C)C)c1O [2,6-di-tert-butyl-4-thio(4′-(methyl)phenylethyl alcohol))phenol]	4.82	50	–	–
–	Butanedioic acid, (1-methylethylidine)bis[thio[2,6-bi(1,1-dimethylethyl)-4,1-phenylene}}ester	< 4.30	25	–	–
–	CC(C)(C)c1cc(SCc2cccc([N+](=O)[O-])c2)cc(C(C)(C)C)c1O [2,6-di-tert-butyl-4-thio(3′-nitrobenzyl)phenol]	4.89	200	–	–
–	CC(C)(C)c1cc(SCc2ccc([N+](=O)[O-])cc2)cc(C(C)(C)C)c1O [2,6-di-tert-butyl-4-thio(4′-nitrobenzyl)phenol]	5.00	200	–	–
–	CC(C)(C)c1cc(SCc2ccc(C(=O)O)cc2)cc(C(C)(C)C)c1O [2,6-di-tert-butyl-4-thio(4′(methyl)benzoic acid)phenol]	< 4.30	>100	–	–
–	CC(C)(C)c1cc(SCCCC(=O)O)cc(C(C)(C)C)c1O [2,6-di-tert-butyl-4-thio(butanoic acid)phenol]	4.12	200	–	–
–	2,6-di-tert-butyl-4-thio(3′,5′-ditert-butyl,4′-hydroxy butanedioic acid ester)phenol	5.22	–	–	–
–	CC(C)(C)c1cc(SCc2ccc(C(=O)O)o2)cc(C(C)(C)C)c1O [2,6-di-tert-butyl-4-thio((2′-furancarboxylic acid)-5-methyl)phenol]	4.40	400	–	–
–	Cc1cc(SC(C)(C)Sc2cc(C(C)(C)C)c(O)c(C(C)(C)C)c2)cc(C)c1OC(=O)CN [Glycine, 4-[[1-[[3,5-bis(1,1-dimethylethyl)-4-hydroxyphenyl]thio]-1-methylethyl]thio]-2,6-dimethylphenyl ester]	–	–	–	10
–	CC(C)(C)c1cc(SCCc2ccc([N+](=O)[O-])cc2)cc(C(C)(C)C)c1O [2,6-di-tert-butyl-4-thio(4′-nitrophenethyl)phenol]	4.82	0.4	–	–
–	CN(C)CCCSc1cc(C(C)(C)C)c(O)c(C(C)(C)C)c1 [2,6-di-tert-butyl-4-thio(3′-(dimethylamino)propyl))phenol]	–	100	30	–
4.96	CC(C)(Sc1cc(C(C)(C)C)c(O)c(C(C)(C)C)c1)Sc1cc(C(C)(C)C)c(OCCCC(=O)O)c(C(C)(C)C)c1 [Butanoic acid, 4-[4-[[1-[[3,5-bis(1,1-dimethylethyl)-4-hydroxyphenyl]thio]-1-methylethyl]thio]-2,6-bis(1,1-dimethylethyl)phenoxy]-]	–	–	–	–
–	CCCCC(OC(C)=O)Sc1cc(C(C)(C)C)c(O)c(C(C)(C)C)c1 (stereo not drawn) [2,6-di-tert-butyl-4-thio((1′-(acetoxy))pentyl)phenol]	–	100	–	–
